Laboratory results published in patent US20060210627A1, “Direct compression formulation and process” (priority 2005, published 2006).

Columns and labels:
[1] = Pharmacokinetic drug-drug interaction study of vildagliptin 100 mg qd and metformin 1000 mg qd in patients with type 2 diabetes; format: in vivo; details: human, plasma, single oral dose of 100 mg, concomitantly with 1000 mg of metformin
Method: Subjects are given an end-of-study evaluation on the last day of period 2 (Day 20). For all treatment periods, subjects fasted for a minimum of 10 hours pre-dose to 4 hours post-dose. Subjects are considered to have completed the study when all safety and pharmacokinetic evaluations have been completed.
The pharmacokinetic profiles are illustrated in FIG. 5.

[2] = Water solubility (statement); format: physicochemical
[3] = clinical; details: human, plasma, po
[4] = clinical; details: human, plasma, po; remark: listed apart in the source
[5] = Water sorption/desorption isotherm (dynamic vapor sorption, DVS-1); format: physicochemical; details: 25° C.; for moisture gain: at 85% RH
Method: Measurements were carried out at 25° C.

## N#C[C@@H]1CCCN1C(=O)CNC12CC3CC(CC(O)(C3)C1)C2 [vildagliptin, (S)-1-[(3-hydroxy-1-adamantyl)amino]acetyl-2-cyano-pyrrolidine]
[1]
  AUC(0-t): 1840 ng·h/mL
  Tmax: 2.5 h
[2]
  water solubility: highly water soluble
[3]; 25 mg
  AUC(0-inf): 461 ± 91 ng·h/mL
  AUC(0-t): 453 ± 91 ng·h/mL
  Cmax: 117 ± 41 ng/mL
[3]; 25 mg, tmax (h) median (min, max), single oral 25 mg FMI tablet, healthy volunteers
  Tmax: 1.5 h
[3]; 50 mg
  AUC(0-inf): 1030 ng·h/mL
  AUC(0-t): 1020 ± 193 ng·h/mL
  Cmax: 245 ± 87 ng/mL
[3]; 50 mg, arithmetic mean tmax of vildagliptin, single oral dose of 50 mg, healthy human subject
  Tmax: 2.1 h
[3]; 50 mg, tmax (h) median (min, max), single oral 50 mg FMI tablet, healthy volunteers
  Tmax: 1.5 h
[3]; 100 mg
  AUC(0-inf): 2350 ng·h/mL
  AUC(0-t): 2330 ± 278 ng·h/mL
[3]; 100 mg, arithmetic mean tmax of vildagliptin, single oral dose of 100 mg, healthy human subject
  Tmax: 2 h
[3]; 100 mg, tmax (h) median (min, max), single oral 100 mg FMI tablet, healthy volunteers
  Tmax: 1.75 h
[3]; 200 mg
  AUC(0-inf): 5080 ± 721 ng·h/mL
  AUC(0-t): 5060 ± 722 ng·h/mL
  Cmax: 1100 ± 280 ng/mL
[3]; 200 mg, tmax (h) median (min, max), single oral 200 mg FMI tablet, healthy volunteers
  Tmax: 1.25 h
[4]
  Tmax: 1 h

## N#C[C@@H]1CCCN1C(=O)CNC12CC3CC(CC(O)(C3)C1)C2 [vildagliptin amorphous form]
[5]
  hygroscopicity: hygroscopic
  moisture gain: 4.2%

## N#C[C@@H]1CCCN1C(=O)CNC12CC3CC(CC(O)(C3)C1)C2 [Crystalline vildagliptin Form A, 1-[(3-Hydroxy-adamant-1-ylamino)-acetyl]-pyrrolidine-2(S)-carbonitrile]
[5]
  hygroscopicity: only very slightly hygroscopic
  moisture gain: 0.9%
